Source: PubChem BioAssay (NCI)
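All cell lines were grown in 96-well plates and treated with compound for 48 hours. GI50: concentration for 50% inhibition of growth. The concentration for full growth arrest is given as TGI.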

Legend:
Experiment in all cases: NCI anticancer screen, dose series, 48 h
[1] = tested on: K-562 leukemia
[2] = tested on: MALME-3M melanoma
[3] = tested on: SF-268 CNS
[4] = tested on: EKVX NSCLC
[5] = tested on: NCI-H522 lung
[6] = tested on: HT29 colon
[7] = tested on: T-47D breast
[8] = tested on: SF-295 CNS
[9] = tested on: HOP-92 NSCLC
[10] = tested on: HCC-2998 colon

O=[N+]([O-])c1ccc(/C=N/Nc2nc3ccccc3[nH]2)o1
TGI [1]: 32.1 µM
TGI [2]: 30.7 µM
TGI [3]: 67.6 µM
TGI [4]: 67.2 µM
TGI [5]: 41.2 µM
TGI [6]: 68 µM
TGI [7]: 35.8 µM
TGI [8]: 41.7 µM
TGI [9]: 39.1 µM

O=C1c2cc(O)c(O)cc2O[C@H](c2ccc(O)c(O)c2)[C@H]1O
TGI [10]: > 100 µM
TGI [1]: > 100 µM
TGI [3]: > 100 µM
TGI [4]: > 100 µM
TGI [5]: > 100 µM
TGI [6]: > 100 µM
TGI [7]: > 100 µM
TGI [8]: > 100 µM
TGI [9]: > 100 µM

Oc1ccc(C(=C(Br)c2ccccc2)c2ccc(O)cc2)cc1
TGI [10]: 21.2 µM
TGI [1]: 9.07 µM
TGI [2]: 18 µM
TGI [3]: 16.5 µM
TGI [4]: 26.2 µM
TGI [5]: 17.6 µM
TGI [6]: 4.78 µM
TGI [7]: 46.2 µM
TGI [8]: 25.6 µM
TGI [9]: 22.5 µM

CN1C(=O)CC(=O)N1/C(=C/c1ccccc1)c1ccccc1
TGI [10]: > 100 µM
TGI [1]: > 100 µM
TGI [3]: > 100 µM
TGI [4]: > 100 µM
TGI [6]: > 100 µM
TGI [7]: > 100 µM
TGI [8]: > 100 µM
TGI [9]: > 100 µM

O=C1c2cc3c(cc2-c2c1c1ccc(Cl)cc1c(=O)n2C[C@H](O)CO)OCO3
GI50 [10]: 0.122 µM
TGI [10]: 0.701 µM
GI50 [1]: 0.0457 µM
TGI [1]: > 100 µM
GI50 [3]: 0.0185 µM
TGI [3]: 1.04 µM
GI50 [4]: 0.153 µM
TGI [4]: 1.52 µM
GI50 [5]: 0.0422 µM
TGI [5]: 1.82 µM
GI50 [6]: 0.0348 µM
TGI [6]: > 100 µM
GI50 [7]: 0.0315 µM
TGI [7]: > 100 µM
GI50 [8]: < 0.01 µM
TGI [8]: 0.341 µM

COC(=O)c1cc2c(cc1Cl)Sc1nnc(Nc3ccccc3)n1S2(=O)=O
TGI [10]: 4.59 µM
TGI [1]: > 42 µM
TGI [2]: 11.6 µM
TGI [3]: 5.48 µM
TGI [4]: 19.9 µM
TGI [5]: 3.26 µM
TGI [6]: 5.17 µM
TGI [7]: 3.72 µM
TGI [8]: 12.7 µM
TGI [9]: 3.75 µM

O=C1c2ccccc2C(=O)c2[nH]cnc21
TGI [10]: > 100 µM
TGI [1]: > 100 µM
TGI [2]: 57.3 µM
TGI [3]: > 100 µM
TGI [4]: > 100 µM
TGI [5]: > 100 µM
TGI [6]: > 100 µM
TGI [8]: > 100 µM

O=C(CSCC(=O)N/N=C/c1cccc(O)c1)N/N=C/c1cccc(O)c1
TGI [10]: > 100 µM
TGI [1]: > 100 µM
TGI [2]: > 100 µM
TGI [3]: > 100 µM
TGI [4]: > 100 µM
TGI [5]: > 100 µM
TGI [6]: > 100 µM
TGI [7]: > 100 µM
TGI [8]: > 100 µM
TGI [9]: > 100 µM

Cc1ccc(S(=O)(=O)N(CC(O)COc2ccccc2)c2c(F)cccc2F)cc1 (stereo not given)
TGI [10]: 47.6 µM
TGI [1]: > 100 µM
TGI [2]: 52.4 µM
TGI [3]: 37.4 µM
TGI [4]: 95.7 µM
TGI [6]: 36.3 µM
TGI [7]: 20.1 µM
TGI [8]: 86 µM
TGI [9]: 8.48 µM

CC(SC(=S)N1CCOCC1)C(=O)Nc1nnc(-c2ccc(Cl)cc2)o1 (stereo not given)
TGI [10]: > 100 µM
TGI [2]: > 100 µM
TGI [3]: > 100 µM
TGI [6]: > 100 µM
TGI [7]: > 100 µM
TGI [9]: > 100 µM

O=c1[nH]c2[nH]c(=S)[nH]c(=S)c2[nH]1
TGI [10]: > 100 µM
TGI [1]: > 100 µM
TGI [2]: > 100 µM
TGI [3]: > 100 µM
TGI [4]: > 100 µM
TGI [5]: > 100 µM
TGI [6]: > 100 µM
TGI [7]: > 100 µM
TGI [8]: > 100 µM
TGI [9]: > 100 µM

COc1ccc2nc3c(c(N)c2c1)C1CCC3C1(C)C (stereo not given)
TGI [10]: 31.9 µM
TGI [1]: > 100 µM
TGI [2]: 67.3 µM
TGI [3]: > 100 µM
TGI [4]: > 100 µM
TGI [5]: > 100 µM
TGI [6]: > 100 µM
TGI [7]: > 100 µM
TGI [8]: 69.7 µM
TGI [9]: 57.3 µM

COc1ccc(OC)c2sc(N3C(=O)/C(=C/c4cccc(Oc5ccccc5)c4)N=C3c3ccccc3)nc12
TGI [10]: > 100 µM
TGI [1]: > 100 µM
TGI [2]: > 100 µM
TGI [3]: > 100 µM
TGI [4]: > 100 µM
TGI [5]: > 100 µM
TGI [6]: > 100 µM
TGI [7]: > 100 µM
TGI [8]: > 100 µM
TGI [9]: > 100 µM

O=C1C(Cl)N(c2ccccc2Cl)C1c1c[nH]c2ccccc12 (stereo not given)
TGI [1]: > 100 µM
TGI [2]: > 100 µM
TGI [3]: > 100 µM
TGI [4]: > 100 µM
TGI [5]: > 100 µM
TGI [6]: > 100 µM
TGI [8]: > 100 µM
TGI [9]: > 100 µM

Cc1ccc(S(=O)(=O)OC2CC(C(C)(C)C)CCC2c2ccccc2)cc1 (stereo not given)
TGI [1]: > 100 µM
TGI [4]: > 100 µM
TGI [6]: > 100 µM
TGI [7]: > 100 µM
TGI [8]: > 100 µM
TGI [9]: > 100 µM

CCOC(=O)c1c2c(n(-c3ccc(C)cc3)c1C)-c1ccccc1C(=O)C2(C(=O)OCC)C(=O)OCC
TGI [10]: 69.9 µM
TGI [1]: > 59.4 µM
TGI [2]: > 75.5 µM
TGI [3]: > 91.9 µM
TGI [4]: > 88.2 µM
TGI [5]: 79.9 µM
TGI [6]: > 84.3 µM
TGI [7]: 64.5 µM
TGI [8]: > 100 µM
TGI [9]: 88.6 µM

C=C(C#N)C(=O)OCC(CC)CC.C=C(C#N)C(=O)OCC(CC)CC.CS(C)=O.CS(C)=O.Nc1c(N=Nc2ccc(-c3ccc(N=Nc4cc(S(=O)(=O)[O-])c5ccccc5c4N)cc3)cc2)cc(S(=O)(=O)[O-])c2ccccc12.[Pt+2]
GI50 [10]: 48.9 µM
TGI [10]: > 100 µM
GI50 [1]: 32.6 µM
TGI [1]: > 100 µM
GI50 [2]: 21.8 µM
TGI [2]: 50 µM
GI50 [3]: 24.9 µM
TGI [3]: 59.1 µM
GI50 [4]: 26 µM
TGI [4]: 63.3 µM
GI50 [5]: 13.7 µM
TGI [5]: 19.3 µM
GI50 [6]: 27.2 µM
TGI [6]: > 69.7 µM
GI50 [8]: 98.4 µM
TGI [8]: > 100 µM
GI50 [9]: 19.6 µM
TGI [9]: 45.4 µM

COc1ccc2nc3cc(Cl)ccc3c(NC(C)CCCN(CCCl)CCCl)c2c1 (stereo not given)
TGI [10]: 9.61 µM
TGI [1]: 2.3 µM
TGI [2]: 9.63 µM
TGI [3]: 4.28 µM
TGI [4]: 18.2 µM
TGI [5]: 2.24 µM
TGI [6]: 2.81 µM
TGI [8]: 10.6 µM
TGI [9]: 3.62 µM

CSCCC(C(=O)O)N(C)C (stereo not given)
TGI [1]: > 100 µM
TGI [2]: > 100 µM
TGI [3]: > 100 µM
TGI [4]: > 100 µM
TGI [5]: > 100 µM
TGI [6]: > 100 µM
TGI [7]: > 100 µM
TGI [8]: > 100 µM
TGI [9]: > 100 µM
